Among the data in paper PMC10590756, “Glutarate regulates T cell metabolism and anti-tumour immunity” (Nature Metabolism, 2023) are toxicity and IC50 values, retold here.

On the set-up of series [1]: method as in PMID 29989593. The note with it: approved by the European Union for use as a food additive; cited from earlier work.
Series [2] has as its target T1, human full-length HIF-P4H-1 (Homo sapiens, UniProt Q96KS0).
T1 construct: The human full-length HIF-P4H-1 and KDM6A enzymes were recombinantly produced using Sf21 insect cells; made in house; host or cells: Sf21 insect cells (baculovirus)
As to the kind of experiment: Cell-free HIF-P4H-1 activity assay (^14CO2 release). The series is classed as biochemical. An excerpt:
The human full-length HIF-P4H-1 and KDM6A enzymes were recombinantly produced using Sf21 insect cells and the enzymes were purified with anti-FLAG M2 affinity gel as described previously[68],[69]. Briefly, the C terminus FLAG-tagged human HIF-P4H1-2 and KDM6A were generated using PCR and subcloned into pAcG3X and pVL1393 baculovirus expression vectors, respectively. The recombinant baculoviruses were generated by transducing the bacmid DNA into Spodoptera frugiperda Sf9 cells using BaculoGold DNA (HIF-P4H1-2, BD Biosciences) and BacMagic-3 DNA kit (for KDM6A, Novagen). Recombinant proteins were produced by infecting Sf21 insect cells with the corresponding amplified baculoviruses for 72 h at 27 °C. Cells were homogenized in a buffer containing 10 mM Tris, 150 mM NaCl, 100 mM glycine, 0.1% (v/v) Triton X-100, pH 7.8, and a protease inhibitor cocktail tablet without EDTA. The cell lysates were centrifuged at 21,000g for 30 min; the soluble fractions containing the FLAG-tagged proteins were affinity-purified using the anti-FLAG M2 affinity gel (Sigma-Aldrich). […] Protein concentration was measured with NanoDrop and proteins were analysed by SDS–PAGE followed by Coomassie brilliant blue staining. […] The IC50 value of the glutarate analogue was calculated from the inhibition saturation curves.

Molecules are shown by their SMILES. pIC50: −log10 of the molar value.

T1 sequence (Q96KS0 whole entry): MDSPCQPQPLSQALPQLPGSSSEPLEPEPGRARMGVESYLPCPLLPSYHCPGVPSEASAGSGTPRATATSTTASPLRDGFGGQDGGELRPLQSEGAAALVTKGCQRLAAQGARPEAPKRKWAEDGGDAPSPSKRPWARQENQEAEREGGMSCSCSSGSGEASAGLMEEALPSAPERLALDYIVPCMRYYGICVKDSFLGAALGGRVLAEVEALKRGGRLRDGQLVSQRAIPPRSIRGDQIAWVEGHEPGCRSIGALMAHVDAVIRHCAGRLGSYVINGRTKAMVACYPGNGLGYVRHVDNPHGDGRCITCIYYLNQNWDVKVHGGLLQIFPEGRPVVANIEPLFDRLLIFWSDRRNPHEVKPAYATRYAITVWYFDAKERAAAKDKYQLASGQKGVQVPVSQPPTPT

Turning to `CCOC(=O)CCCC(=O)OCC` [DEG, Diethyl glutarate], the toxicity result in series [1] is on record as “non-toxic”.
For the compound `O=C(O)CCCC(=O)O` [glutarate, glutaric acid], the pIC50 in series [2] is 2.70.
